The values that follow are results of earlier work, collected in patent US8067464B2, “Compositions and methods using apocynin compounds and nitric oxide donors” (Nitromed, Inc., priority 2004, dated 2011).

The structures appear in SMILES notation.

As to `O=[N+]([O-])O[C@H]1CO[C@H]2[C@@H]1OC[C@H]2O[N+](=O)[O-]` [isosorbide dinitrate, 1,4,3,6-dianhydro-D-glucitol-2,5-dinitrate], for the setting “organic solvents such as ethanol, ether and chloroform”, the “solubility in organic solvents” value is “freely soluble”. Further, for the setting “water”, the solubility in water result was “sparingly soluble”.
